In brackets after ≈: the same amount, converted by molar mass. Values belong to the molecule of their own block, whether it stands above or below them.
Experiments:
[1] = (§1) Cytotoxicity against human A549 cells; format: toxicity, cell-based; details: A549 cells
Staphylococcus aureus = test: Antibacterial activity against Staphylococcus aureus; format: functional; details: for MIC: read-out: MIC
A549 = test: as §1; format: toxicity, cell-based; details: a549
[2] = Selectivity ratio of CC50 for human A549 cells to MIC for Staphylococcus aureus; format: toxicity
Escherichia coli [3] = test: Antibacterial activity against wild type Escherichia coli harbouring pore; format: functional
Escherichia coli [4] = test: Antibacterial activity against Escherichia coli; format: functional
Escherichia coli [5] = test: Antibacterial activity against […] Escherichia coli harbouring TolC-deficient mutant with pore; format: functional
Escherichia coli [6] = test: Antibacterial activity against […] Escherichia coli harbouring TolC-deficient mutant; format: functional
Pseudomonas aeruginosa [7] = test: Antibacterial activity against Pseudomonas aeruginosa PAO1; format: functional
Pseudomonas aeruginosa [8] = test: Antibacterial activity against Pseudomonas aeruginosa PAO1 harbouring delta6 mutant with pore; format: functional
Pseudomonas aeruginosa [9] = test: Antibacterial activity against Pseudomonas aeruginosa PAO1 harbouring pore; format: functional
Pseudomonas aeruginosa [10] = test: Antibacterial activity against Pseudomonas aeruginosa PAO1 harbouring delta6 mutant; format: functional
[11] = Staphylococcus aureus, read-out: MIC80

Structure (SMILES): Cc1cc(Cl)cc2sc(NCCCn3ccnc3)nc12
CC50 [1]: 111 µM
MIC (Staphylococcus aureus; Staphylococcus aureus): 19.8 µM (≈ 6.08 µg/mL)

Structure (SMILES): O=C(c1ccco1)N(CCCn1ccnc1)c1nc2ccc(Cl)nc2s1
MIC (Staphylococcus aureus; Staphylococcus aureus): > 100 µM

Structure (SMILES): Cc1cccc2sc(N(CCCn3ccnc3)C(=O)c3ccco3)nc12
CC50 [1]: 84.7 µM
MIC (Staphylococcus aureus; Staphylococcus aureus): 7.4 µM (≈ 2.71 µg/mL)

Structure (SMILES): Cc1cc(Cl)cc2sc(N(CCCn3ccnc3)C(=O)C3CCCC3)nc12
selectivity ratio [2]: 34
CC50 (A549): 59.7 µM
MIC (Staphylococcus aureus; Staphylococcus aureus): 1.7 µM (≈ 0.685 µg/mL)

Structure (SMILES): NCc1cccc2sc(N(CCCn3ccnc3)C(=O)c3ccco3)nc12
MIC (Escherichia coli [3]): > 200 µM
MIC (Escherichia coli [4]): > 200 µM
MIC (Escherichia coli [5]): 100 µM (≈ 38.1 µg/mL)
MIC (Escherichia coli [6]): 100 µM (≈ 38.1 µg/mL)
MIC (Pseudomonas aeruginosa [7]): > 200 µM
MIC (Pseudomonas aeruginosa [8]): 100 µM (≈ 38.1 µg/mL)
MIC (Pseudomonas aeruginosa [9]): > 200 µM
MIC (Pseudomonas aeruginosa [10]): 100 µM (≈ 38.1 µg/mL)
MIC (Staphylococcus aureus; Staphylococcus aureus): 66.7 µM (≈ 25.4 µg/mL)

Structure (SMILES): Cc1cc(Cl)cc2sc(N(CCCn3ccnc3)CS(=O)(=O)c3cccs3)nc12
CC50 [1]: 26.3 µM
MIC80 (Staphylococcus aureus; [11]): 3.9 µM (≈ 1.82 µg/mL)

Structure (SMILES): Cc1nc(Cl)cc2sc(N(CCCn3ccnc3)C(=O)c3ccco3)nc12
MIC (Staphylococcus aureus; Staphylococcus aureus): > 100 µM

Structure (SMILES): NCc1ccc2nc(N(CCCn3ccnc3)C(=O)c3ccco3)sc2c1
MIC (Staphylococcus aureus; Staphylococcus aureus): > 100 µM

Structure (SMILES): Cc1cc(Cl)cc2sc(N(CCCn3ccnc3)CC3CC3)nc12
CC50 [1]: 65.6 µM
MIC80 (Staphylococcus aureus; [11]): 5.9 µM (≈ 2.13 µg/mL)

Structure (SMILES): Cc1cc(Cl)cc2sc(N(CC3CCCNC3)C(=O)c3ccco3)nc12 (stereo not given)
MIC (Escherichia coli [3]): 100 µM (≈ 39 µg/mL)
MIC (Escherichia coli [5]): 50 µM (≈ 19.5 µg/mL)
MIC (Escherichia coli [6]): 100 µM (≈ 39 µg/mL)
MIC (Pseudomonas aeruginosa [7]): > 200 µM
MIC (Pseudomonas aeruginosa [8]): 25 µM (≈ 9.75 µg/mL)
MIC (Pseudomonas aeruginosa [9]): > 200 µM
MIC (Pseudomonas aeruginosa [10]): > 200 µM
MIC80 (Staphylococcus aureus): 19.8 µM (≈ 7.72 µg/mL)
MIC80 (Staphylococcus aureus; [11]): 29.6 µM (≈ 11.5 µg/mL)

Structure (SMILES): Cc1cc(Cl)cc2sc(N(CCCn3ccnc3)C(=O)C3CCCO3)nc12 (stereo not given)
CC50 (A549): 87.6 µM
MIC (Staphylococcus aureus; Staphylococcus aureus): 13.2 µM (≈ 5.34 µg/mL)

Structure (SMILES): Cc1cc(Cl)cc2sc(N(CC3CCNCC3)C(=O)c3ccco3)nc12
MIC (Escherichia coli [3]): 200 µM (≈ 78 µg/mL)
MIC (Escherichia coli [4]): 200 µM (≈ 78 µg/mL)
MIC (Escherichia coli [5]): 50 µM (≈ 19.5 µg/mL)
MIC (Escherichia coli [6]): 50 µM (≈ 19.5 µg/mL)
MIC (Pseudomonas aeruginosa [7]): > 200 µM
MIC (Pseudomonas aeruginosa [8]): 25 µM (≈ 9.75 µg/mL)
MIC (Pseudomonas aeruginosa [9]): > 200 µM
MIC (Pseudomonas aeruginosa [10]): 25 µM (≈ 9.75 µg/mL)
MIC80 (Staphylococcus aureus): 19.8 µM (≈ 7.72 µg/mL)
MIC80 (Staphylococcus aureus; [11]): 13.2 µM (≈ 5.15 µg/mL)

Structure (SMILES): Cc1cc(Cl)cc2sc(N(CCCn3ccnc3)C(=O)c3ccc[nH]3)nc12
MIC (Escherichia coli [3]): > 200 µM
MIC (Escherichia coli [4]): > 200 µM
MIC (Escherichia coli [5]): 0.78 µM (≈ 0.312 µg/mL)
MIC (Escherichia coli [6]): 1.56 µM (≈ 0.624 µg/mL)
MIC (Pseudomonas aeruginosa [7]): > 100 µM
CC50 (A549): > 100 µM
MIC (Pseudomonas aeruginosa [9]): > 100 µM
MIC (Pseudomonas aeruginosa [10]): > 100 µM
MIC (Staphylococcus aureus; Staphylococcus aureus): 1.7 µM (≈ 0.68 µg/mL)

Further lines, with some results ahead:

MIC (Staphylococcus aureus; Staphylococcus aureus): 2.6 µM (≈ 1.01 µg/mL)
Structure (SMILES): Cc1cc(Cl)cc2sc(N(CCCn3ccnc3)C(=O)C3CCC3)nc12
CC50 (A549): 44.6 µM

MIC (Staphylococcus aureus; Staphylococcus aureus): 16.5 µM (≈ 7.11 µg/mL)
Structure (SMILES): Cc1ccc(C(=O)N(CCCn2ccnc2)c2nc3c(C)cc(Cl)cc3s2)s1
CC50 (A549): 34.1 µM

MIC (Staphylococcus aureus; Staphylococcus aureus): 3.3 µM (≈ 1.28 µg/mL)
Structure (SMILES): Cc1cc(Cl)cc2sc(N(CCCn3ccnc3)C(=O)C3(C)CC3)nc12
CC50 (A549): 54.6 µM

MIC (Staphylococcus aureus; Staphylococcus aureus): 7.4 µM (≈ 3.05 µg/mL)
Structure (SMILES): Cc1cc(Cl)cc2sc(N(CCCn3ccnc3)C(=O)c3ccccn3)nc12
CC50 (A549): 44.5 µM

MIC (Staphylococcus aureus; Staphylococcus aureus): 2.6 µM (≈ 1.08 µg/mL)
Structure (SMILES): Cc1ccc(C(=O)N(CCCn2ccnc2)c2nc3c(C)cc(Cl)cc3s2)o1
CC50 (A549): 35.2 µM

MIC (Staphylococcus aureus; Staphylococcus aureus): 4.9 µM (≈ 2.01 µg/mL)
Structure (SMILES): Cc1cc(Cl)cc2sc(N(CCCn3ccnc3)C(=O)c3ccccc3)nc12
CC50 (A549): 37.2 µM
